Like-named read-outs stand apart in the source and are kept apart here.
Molecular target: hT2R8 (Homo sapiens (Human), UniProt Q9NYW2)
Assay: hT2R8 antagonist high-throughput FLIPR assay, stable cell line with G16g44, agonist andrographolide
Type: cell-based
From the text: After a ligand is identified for a particular hT2R, a HEK293 cell line stably expressing both the hT2R and G16gust44 are generated, facilitating future screening assays to identify other ligands that activate the particular hT2R or which modulate (block or enhance) the activation of this hT2R by another bitter ligand such as a bitter compound contained in coffee. This avoids the need for transient transfection.
(§1) To identify antagonists, cell lines stably expressing hT2R8 and hT2R14, respectively, together with the promiscuous chimeric G16g44 protein were generated as described in previous patent applications. A high-throughput assay was established using the stable cell lines and FLIPR (Fluorescent Imaging Plate Reader). An agonist of hT2R8 or hT2R14 was used to activate the receptors up to 70-80% of their respective maximal activity. For hT2R8, the agonist used was andrographolide (200 λM); for hT2R14, it was aristolochic acid (3 μM). To identify antagonists, compounds with diverse chemical structures were added together with the agonist.
as §1, with “hT2R8” for “hT2R8 and hT2R14, respectively,”, “hT2R8” for “hT2R8 or hT2R14”, “(200” for “(200 λM); for hT2R14, it was aristolochic acid (3”

[1] = table after Example 10-97, read-out: hT2R8 IC50
[2] = read-out: IC50 on hT2R8 bitter receptor
[3] = table after Example 12-37, read-out: hT2R8 IC50

hT2R8, sequence (Q9NYW2 whole entry): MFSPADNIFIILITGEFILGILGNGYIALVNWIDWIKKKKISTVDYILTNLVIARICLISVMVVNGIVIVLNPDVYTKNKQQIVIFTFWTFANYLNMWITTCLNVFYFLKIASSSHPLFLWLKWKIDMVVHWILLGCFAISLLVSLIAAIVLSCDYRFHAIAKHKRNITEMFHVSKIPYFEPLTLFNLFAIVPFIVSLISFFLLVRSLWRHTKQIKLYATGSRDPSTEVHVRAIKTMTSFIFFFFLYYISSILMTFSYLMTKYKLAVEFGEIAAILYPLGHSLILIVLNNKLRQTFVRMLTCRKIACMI

Compound `Cc1noc(C)c1Cn1cc(N2C(=O)CN(Cc3ccccc3F)C2=O)cn1` [Example 10-21, 3-(1-((3,5-dimethylisoxazol-4-yl)methyl)-1H-pyrazol-4-yl)-1-(2-fluorobenzyl)imidazolidine-2,4-dione] has an IC50 [1] of 0.09 µM and an IC50 (unit uM, read-out: IC50 on hT2R08 bitter receptor) of 0.08 µM.
`COc1ccc(CN2C(=O)N(c3cnn(Cc4c(C)noc4C)c3)C(=O)C2(C)C)cc1` [Example 12-33, 3-(1-((3,5-dimethylisoxazol-4-yl)methyl)-1H-pyrazol-4-yl)-1-(4-methoxybenzyl)-5,5-dimethylimidazolidine-2,4-dione] was tested, and the IC50 [2] was 0.11 µM.
`COc1ccc(CC(=O)Nc2cnn(Cc3c(C)noc3C)c2)cc1O` [Example 4-70, N-(1-((3,5-dimethylisoxazol-4-yl)methyl)-1H-pyrazol-4-yl)-2-(3-hydroxy-4-methoxyphenyl)acetamide] gave an IC50 (Table A, read-out: hT2R8 IC50) of 3.1 µM.
`Cc1noc(C)c1Cn1cc(NC(=O)CC2CCCCC2)cn1` [Example 4-14, 2-cyclohexyl-N-(1-((3,5-dimethylisoxazol-4-yl)methyl)-1H-pyrazol-4-yl)acetamide] showed an IC50 [2] of 0.73 µM.
Work on `Cc1noc(C)c1Cn1cc(N2C(=O)N(Cc3ccc(F)cc3)C(C)(C)C2=O)cn1` [Example 12-29, 3-(1-((3,5-dimethylisoxazol-4-yl)methyl)-1H-pyrazol-4-yl)-1-(4-fluorobenzyl)-5,5-dimethylimidazolidine-2,4-dione] yielded an IC50 [2] of 0.08 µM.
With `COc1cccc(CN2C(=O)N(c3cnn(Cc4c(C)noc4C)c3)C(=O)C2(C)C)n1` [Example 12-40, 3-(1-((3,5-dimethylisoxazol-4-yl)methyl)-1H-pyrazol-4-yl)-1-((6-methoxypyridin-2-yl)methyl)-5,5-dimethylimidazolidine-2,4-dione] the IC50 [3] was 0.08 µM.
`Cc1noc(C)c1Cn1cc(N2C(=O)N(Cc3cccc(O)c3)C3(CCCC3)C2=O)cn1` [Example 12-5, 3-(1-((3,5-dimethylisoxazol-4-yl)methyl)-1H-pyrazol-4-yl)-1-(3-hydroxybenzyl)-1,3-diazaspiro[4.4]nonane-2,4-dione] was tested, and the IC50 [2] was 0.07 µM.
`Cc1cccc(C(=O)Nc2cnn(Cc3c(C)noc3C)c2)c1` [Example 4-28, N-(1-((3,5-dimethylisoxazol-4-yl)methyl)-1H-pyrazol-4-yl)-3-methylbenzamide] was tested, and the IC50 (Table A, read-out: hT2R8 IC50) was 0.57 µM.
`COc1ccc(CN2C(=O)N(c3cnn(Cc4c(C)noc4C)c3)C(=O)C2(C)C)cc1OC` [Example 12-30, 1-(3,4-dimethoxybenzyl)-3-(1-((3,5-dimethylisoxazol-4-yl)methyl)-1H-pyrazol-4-yl)-5,5-dimethylimidazolidine-2,4-dione] gave an IC50 [2] of 0.08 µM.
`Cc1noc(C)c1Cn1cc(N2C(=O)N(Cc3ccn(C)n3)C(C)(C)C2=O)cn1` [Example 12-71, 3-(1-((3,5-dimethylisoxazol-4-yl)methyl)-1H-pyrazol-4-yl)-5,5-dimethyl-1-((1-methyl-1H-pyrazol-3-yl)methyl)imidazolidine-2,4-dione] gave an IC50 [3] of 0.42 µM.
`COc1ccccc1C(=O)Nc1cnn(Cc2c(C)noc2C)c1` [Example 4-19, N-(1-((3,5-dimethylisoxazol-4-yl)methyl)-1H-pyrazol-4-yl)-2-methoxybenzamide] showed an IC50 (Table A, read-out: hT2R8 IC50) of 0.39 µM.
With `Cc1noc(C)c1Cn1cc(NC(=O)c2ccc3ocnc3c2)cn1` [Example 4-72, N-(1-((3,5-dimethylisoxazol-4-yl)methyl)-1H-pyrazol-4-yl)benzo[d]oxazole-5-carboxamide] the IC50 (Table A, read-out: hT2R8 IC50) was 2.6 µM.
Work on `COc1cc(CC(=O)Nc2cnn(Cc3c(C)noc3C)c2)ccc1O` [Example 4-69, N-(1-((3,5-dimethylisoxazol-4-yl)methyl)-1H-pyrazol-4-yl)-2-(4-hydroxy-3-methoxyphenyl)acetamide] yielded an IC50 (Table A, read-out: hT2R8 IC50) of 4.7 µM.
Work on `Cc1noc(C)c1Cn1cc(N2C(=O)NC(C(C)C)C2=O)cn1` (centres unmarked) [Example 10-62, 3-(1-((3,5-dimethylisoxazol-4-yl)methyl)-1H-pyrazol-4-yl)-5-isopropylimidazolidine-2,4-dione] yielded an IC50 [2] of 1.1 µM and an IC50 [1] of 1.44 µM.
`Cc1noc(C)c1Cn1cc(NC(=S)Nc2ccccc2)cn1` [Example 4-112, 1-(1-((3,5-dimethylisoxazol-4-yl)methyl)-1H-pyrazol-4-yl)-3-phenylthiourea] gave an IC50 (Table A, read-out: hT2R8 IC50) of 2.49 µM.
`Cc1noc(C)c1Cn1cc(C(=O)NCc2cccs2)sc1=O` [Example 4-116, 3-((3,5-dimethylisoxazol-4-yl)methyl)-2-oxo-N-(thiophen-2-ylmethyl)-2,3-dihydrothiazole-5-carboxamide] was tested, and the IC50 (Table A, read-out: hT2R8 IC50) was 2.28 µM.
Work on `COc1ccc(CN2C(=O)N(c3cnn(Cc4c(C)noc4C)c3)C(=O)C23CC3)cc1OC` [Example 12-13, 4-(3,4-dimethoxybenzyl)-6-(1-((3,5-dimethylisoxazol-4-yl)methyl)-1H-pyrazol-4-yl)-4,6-diazaspiro[2.4]heptane-5,7-dione] yielded an IC50 [2] of 0.02 µM.
Compound `Cc1noc(C)c1Cn1cc(N2C(=O)N(Cc3cc(F)ccc3F)C(C)(C)C2=O)cn1` [Example 12-59, 1-(2,5-difluorobenzyl)-3-(1-((3,5-dimethylisoxazol-4-yl)methyl)-1H-pyrazol-4-yl)-5,5-dimethylimidazolidine-2,4-dione] has an IC50 [3] of 0.24 µM.
Compound `Cc1noc(C)c1Cn1cc(-n2c(=O)n(Cc3ccccc3)n(Cc3ccccc3)c2=O)cn1` [Example 10-70, 1,2-dibenzyl-4-(1-((3,5-dimethylisoxazol-4-yl)methyl)-1H-pyrazol-4-yl)-1,2,4-triazolidine-3,5-dione] has an IC50 [2] of 0.8 µM and an IC50 [1] of 1.8 µM.
`Cc1noc(C)c1Cn1cc(NC(=O)c2ccc[nH]2)cn1` [Example 4-13, N-(1-((3,5-dimethylisoxazol-4-yl)methyl)-1H-pyrazol-4-yl)-1H-pyrrole-2-carboxamide] gave an IC50 [2] of 0.57 µM.
In the case of `Cc1noc(C)c1Cn1cc(N2C(=O)CN(Cc3ccccc3C#N)C2=O)cn1` [Example 10-19, 2-((3-(1-((3,5-dimethylisoxazol-4-yl)methyl)-1H-pyrazol-4-yl)-2,4-dioxoimidazolidin-1-yl)methyl)benzonitrile], the IC50 [2] is reported as 0.5 µM and the IC50 [1] is reported as 0.55 µM.
With `Cc1noc(C)c1Cn1cc(N2C(=O)NC(Cc3ccc(O)cc3)C2=O)cn1` (centres unmarked) [Example 10-59, 3-(1-((3,5-dimethylisoxazol-4-yl)methyl)-1H-pyrazol-4-yl)-5-(4-hydroxybenzyl)imidazolidine-2,4-dione] the IC50 [2] was 0.33 µM and the IC50 [1] was 0.327 µM.
Work on `COc1ccc(OC)c(S(=O)(=O)Nc2cnn(Cc3c(C)noc3C)c2)c1` [Example 4-101, N-(1-((3,5-dimethylisoxazol-4-yl)methyl)-1H-pyrazol-4-yl)-2,5-dimethoxybenzenesulfonamide] yielded an IC50 (Table A, read-out: hT2R8 IC50) of 1.63 µM.
`Cc1noc(C)c1CN1C(=O)N(c2cnn(Cc3c(C)noc3C)c2)C(=O)C1(C)C` [Example 12-21, 1-((3,5-dimethylisoxazol-4-yl)methyl)-3-(1-((3,5-dimethylisoxazol-4-yl)methyl)-1H-pyrazol-4-yl)-5,5-dimethylimidazolidine-2,4-dione] was tested, and the IC50 [2] was 0.08 µM.
`COCc1cccc(CN2C(=O)N(c3cnn(Cc4c(C)noc4C)c3)C(=O)C2(C)C)c1` [Example 12-35, 3-(1-((3,5-dimethylisoxazol-4-yl)methyl)-1H-pyrazol-4-yl)-1-(3-(methoxymethyl)benzyl)-5,5-dimethylimidazolidine-2,4-dione] gave an IC50 [2] of 0.13 µM.
In the case of `Cc1noc(C)c1Cn1cc(N2C(=O)NC(CC3CCCC3)C2=O)cn1` (centres unmarked) [Example 10-58, 5-(cyclopentylmethyl)-3-(1-((3,5-dimethylisoxazol-4-yl)methyl)-1H-pyrazol-4-yl)imidazolidine-2,4-dione], the IC50 [2] is reported as 0.31 µM and the IC50 [1] is reported as 0.316 µM.
Compound `Cc1noc(C)c1Cn1cc(NC(=O)CCCc2ccccc2)cn1` [Example 4-56, N-(1-((3,5-dimethylisoxazol-4-yl)methyl)-1H-pyrazol-4-yl)-4-phenylbutanamide] has an IC50 (Table A, read-out: hT2R8 IC50) of 0.83 µM.
`Cc1noc(C)c1Cn1cc(N2C(=O)NC(CC3CCCCC3)C2=O)cn1` (centres unmarked) [Example 10-57, 5-(cyclohexylmethyl)-3-(1-((3,5-dimethylisoxazol-4-yl)methyl)-1H-pyrazol-4-yl)imidazolidine-2,4-dione] was tested, and the IC50 [2] was 0.96 µM and the IC50 [1] was 0.962 µM.
In the case of `Cc1noc(C)c1Cn1cc(N2C(=O)N(C(C)c3ccccc3)C(C)(C)C2=O)cn1` (centres unmarked) [Example 12-24, 3-(1-((3,5-dimethylisoxazol-4-yl)methyl)-1H-pyrazol-4-yl)-5,5-dimethyl-1-(1-phenylethyl)imidazolidine-2,4-dione], the IC50 [2] is reported as 0.15 µM.
Work on `COc1ccnc(CN2CC(=O)N(c3cnn(Cc4c(C)noc4C)c3)C2=O)c1OC` [Example 10-72, 1-((3,4-dimethoxypyridin-2-yl)methyl)-3-(1-((3,5-dimethylisoxazol-4-yl)methyl)-1H-pyrazol-4-yl)imidazolidine-2,4-dione] yielded an IC50 [2] of 1 µM and an IC50 [1] of 0.999 µM.
Work on `Cc1noc(C)c1Cn1cc(N2C(=O)CNC2=O)cn1` [Example 10-1, 3-(1-((3,5-dimethylisoxazol-4-yl)methyl)-1H-pyrazol-4-yl)imidazolidine-2,4-dione] yielded an IC50 [2] of 1.7 µM and an IC50 [1] of 1.7 µM.
For `Cc1noc(C)c1Cn1cc(N2C(=O)N(CCc3ccc(F)cc3)C(C)(C)C2=O)cn1` [Example 12-69, 3-(1-((3,5-dimethylisoxazol-4-yl)methyl)-1H-pyrazol-4-yl)-1-(4-fluorophenethyl)-5,5-dimethylimidazolidine-2,4-dione], the IC50 [3] was 0.33 µM.
